# Data as given in ChEMBL document CHEMBL1201862, “PubChem BioAssay data set” (2004).
#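 Values below derive from 48-hour exposures of cells grown in 96-well plates, with endpoints linearly interpolated between the two concentrations bracketing the appropriate inhibition level. Abbreviation: GI50, concentration required for 50% inhibition of growth.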 Calls of active or inactive are those of the source. Rule as the data show it: active = GI50 up to about 1.1 µM and inactive = higher.
# Assays:
# Assay in all cases: growth of human tumour cells (NCI), 48 h
# 786-0 = test system: 786-0
# A498 = test system: A498
# A549 = test system: A549
# ACHN = test system: ACHN
# BT-549 = test system: BT-549
# CAKI-1 = test system: CAKI-1
# CCRF-CEM = test system: CCRF-CEM
# COLO 205 = test system: COLO 205
# DU-145 = test system: DU-145
# EKVX = test system: EKVX
# HCC 2998 = test system: HCC 2998
# HCT-116 = test system: HCT-116
# HCT-15 = test system: HCT-15
# HOP-62 = test system: HOP-62
# HOP-92 = test system: HOP-92
# K562 = test system: K562
# KM12 = test system: KM12
# M14 = test system: M14
# MDA-MB-231 = test system: MDA-MB-231
# MDA-MB-435 = test system: MDA-MB-435
# MDA-N = test system: MDA-N
# MOLT-4 = test system: MOLT-4
# NCI-H226 = test system: NCI-H226
# NCI-H23 = test system: NCI-H23
# NCI-H460 = test system: NCI-H460
# NCI-H522 = test system: NCI-H522
# NCI/ADR-RES = test system: NCI/ADR-RES
# OVCAR-3 = test system: OVCAR-3
# OVCAR-4 = test system: OVCAR-4
# OVCAR-5 = test system: OVCAR-5
# OVCAR-8 = test system: OVCAR-8
# PC-3 = test system: PC-3
# RPMI-8226 = test system: RPMI-8226
# RXF 393 = test system: RXF 393
# SF-268 = test system: SF-268
# SF-295 = test system: SF-295
# SF-539 = test system: SF-539
# SK-MEL-28 = test system: SK-MEL-28
# SK-OV-3 = test system: SK-OV-3
# SN12C = test system: SN12C
# SNB-19 = test system: SNB-19
# SNB-75 = test system: SNB-75
# SR = test system: SR
# SW-620 = test system: SW-620
# T47D = test system: T47D
# U-251 = test system: U-251
# UACC-257 = test system: UACC-257
# UACC-62 = test system: UACC-62
# UO-31 = test system: UO-31
# HL-60 = test system: HL-60
# HT-29 = test system: HT-29
# Hs-578T = test system: Hs-578T
# IGROV-1 = test system: IGROV-1
# LOX IMVI = test system: LOX IMVI
# MCF7 = test system: MCF7
# Malme-3M = test system: Malme-3M
# SK-MEL-2 = test system: SK-MEL-2
# SK-MEL-5 = test system: SK-MEL-5
# TK-10 = test system: TK-10
smiles,measurement,setting,value
COC(=O)c1cc(C#N)[nH]c1-c1cccs1,GI50,786-0,> 100 µM (inactive)
same,GI50,A498,37.8 µM (inactive)
same,GI50,A549,> 100 µM (inactive)
same,GI50,ACHN,89.9 µM (inactive)
same,GI50,BT-549,31.8 µM (inactive)
same,GI50,CAKI-1,56.8 µM (inactive)
same,GI50,CCRF-CEM,48.6 µM (inactive)
same,GI50,COLO 205,> 100 µM (inactive)
same,GI50,DU-145,86.9 µM (inactive)
same,GI50,EKVX,91.2 µM (inactive)
same,GI50,HCC 2998,> 100 µM (inactive)
same,GI50,HCT-116,> 100 µM (inactive)
same,GI50,HCT-15,57.4 µM
same,GI50,HOP-62,47.8 µM (inactive)
same,GI50,HOP-92,30.8 µM (inactive)
same,GI50,K562,> 100 µM (inactive)
same,GI50,KM12,> 100 µM (inactive)
same,GI50,M14,> 100 µM (inactive)
same,GI50,MDA-MB-231,52.7 µM (inactive)
same,GI50,MDA-MB-435,> 100 µM (inactive)
same,GI50,MDA-N,> 100 µM (inactive)
same,GI50,MOLT-4,> 100 µM (inactive)
same,GI50,NCI-H226,> 100 µM (inactive)
same,GI50,NCI-H23,58.1 µM (inactive)
same,GI50,NCI-H460,> 100 µM (inactive)
same,GI50,NCI-H522,33.9 µM (inactive)
same,GI50,NCI/ADR-RES,33.7 µM (inactive)
same,GI50,OVCAR-3,56.5 µM (inactive)
same,GI50,OVCAR-4,> 100 µM (inactive)
same,GI50,OVCAR-5,> 100 µM (inactive)
same,GI50,OVCAR-8,> 100 µM (inactive)
same,GI50,PC-3,47.1 µM (inactive)
same,GI50,RPMI-8226,36.6 µM (inactive)
same,GI50,RXF 393,22.6 µM (inactive)
same,GI50,SF-268,> 100 µM (inactive)
same,GI50,SF-295,86.5 µM (inactive)
same,GI50,SF-539,> 100 µM (inactive)
same,GI50,SK-MEL-28,> 100 µM (inactive)
same,GI50,SK-OV-3,> 100 µM (inactive)
same,GI50,SN12C,> 100 µM (inactive)
same,GI50,SNB-19,> 100 µM (inactive)
same,GI50,SNB-75,25.8 µM (inactive)
same,GI50,SR,> 100 µM (inactive)
same,GI50,SW-620,> 100 µM (inactive)
same,GI50,T47D,24.4 µM (inactive)
same,GI50,U-251,> 100 µM (inactive)
same,GI50,UACC-257,> 100 µM (inactive)
same,GI50,UACC-62,97.7 µM (inactive)
same,GI50,UO-31,81.8 µM (inactive)
NC(=S)Nc1c(S(N)(=O)=O)cc(S(N)(=O)=O)c(Cl)c1Cl,GI50,786-0,> 100 µM (inactive)
same,GI50,A549,> 100 µM (inactive)
same,GI50,BT-549,> 100 µM (inactive)
same,GI50,CAKI-1,> 100 µM (inactive)
same,GI50,CCRF-CEM,> 100 µM (inactive)
same,GI50,COLO 205,> 100 µM (inactive)
same,GI50,DU-145,> 100 µM (inactive)
same,GI50,EKVX,> 100 µM (inactive)
same,GI50,HCT-116,> 100 µM (inactive)
same,GI50,HCT-15,> 100 µM
same,GI50,HL-60,> 100 µM (inactive)
same,GI50,HOP-62,> 100 µM (inactive)
same,GI50,HOP-92,> 100 µM (inactive)
same,GI50,HT-29,> 100 µM (inactive)
same,GI50,Hs-578T,> 100 µM (inactive)
same,GI50,IGROV-1,> 100 µM (inactive)
same,GI50,K562,> 100 µM (inactive)
same,GI50,KM12,> 100 µM (inactive)
same,GI50,LOX IMVI,> 100 µM (inactive)
same,GI50,M14,> 100 µM (inactive)
same,GI50,MCF7,> 100 µM (inactive)
same,GI50,MDA-MB-231,> 100 µM (inactive)
same,GI50,MDA-MB-435,> 100 µM (inactive)
same,GI50,MDA-N,> 100 µM (inactive)
same,GI50,MOLT-4,> 100 µM (inactive)
same,GI50,Malme-3M,> 100 µM (inactive)
same,GI50,NCI-H226,> 100 µM (inactive)
same,GI50,NCI-H23,> 100 µM (inactive)
same,GI50,NCI-H522,> 100 µM (inactive)
same,GI50,NCI/ADR-RES,> 100 µM (inactive)
same,GI50,OVCAR-3,> 100 µM (inactive)
same,GI50,OVCAR-4,> 100 µM (inactive)
same,GI50,OVCAR-5,> 100 µM (inactive)
same,GI50,OVCAR-8,> 100 µM (inactive)
same,GI50,PC-3,> 100 µM (inactive)
same,GI50,RPMI-8226,> 100 µM (inactive)
same,GI50,RXF 393,> 100 µM (inactive)
same,GI50,SF-268,> 100 µM (inactive)
same,GI50,SF-295,> 100 µM (inactive)
same,GI50,SF-539,0.443 µM (active)
same,GI50,SK-MEL-28,> 100 µM (inactive)
same,GI50,SK-MEL-2,> 100 µM (inactive)
same,GI50,SK-MEL-5,> 100 µM (inactive)
same,GI50,SK-OV-3,> 100 µM (inactive)
same,GI50,SN12C,> 100 µM (inactive)
same,GI50,SNB-19,> 100 µM (inactive)
same,GI50,SNB-75,> 100 µM (inactive)
same,GI50,SW-620,> 100 µM (inactive)
same,GI50,TK-10,> 100 µM (inactive)
same,GI50,U-251,> 100 µM (inactive)
same,GI50,UACC-257,> 100 µM (inactive)
same,GI50,UACC-62,> 100 µM (inactive)
same,GI50,UO-31,> 100 µM (inactive)
COc1ccc(-c2cc(-c3ccccc3)nc3c2CC(=O)Nc2ccccc2-3)cc1OC,GI50,786-0,4.79 µM (inactive)
same,GI50,A498,1.89 µM (inactive)
same,GI50,ACHN,4.67 µM (inactive)
same,GI50,BT-549,> 100 µM (inactive)
same,GI50,CAKI-1,> 100 µM (inactive)
same,GI50,CCRF-CEM,> 100 µM (inactive)
same,GI50,COLO 205,> 27.9 µM (inactive)
same,GI50,DU-145,> 100 µM (inactive)
same,GI50,EKVX,> 100 µM (inactive)
same,GI50,HCC 2998,> 100 µM (inactive)
same,GI50,HCT-15,> 100 µM
same,GI50,HOP-62,1.81 µM (inactive)
same,GI50,HOP-92,5.46 µM (inactive)
same,GI50,HT-29,0.719 µM (active)
same,GI50,Hs-578T,0.855 µM (active)
same,GI50,IGROV-1,> 100 µM (inactive)
same,GI50,K562,1.45 µM (inactive)
same,GI50,KM12,> 100 µM (inactive)
same,GI50,LOX IMVI,2 µM (inactive)
same,GI50,M14,> 100 µM (inactive)
same,GI50,MCF7,> 20 µM (inactive)
same,GI50,MDA-MB-231,1.32 µM (inactive)
same,GI50,MDA-MB-435,> 100 µM (inactive)
same,GI50,MOLT-4,> 100 µM (inactive)
same,GI50,NCI-H226,2.92 µM (inactive)
same,GI50,NCI-H23,> 100 µM (inactive)
same,GI50,NCI-H460,> 100 µM (inactive)
same,GI50,NCI-H522,> 76.7 µM (inactive)
same,GI50,NCI/ADR-RES,1.37 µM (inactive)
same,GI50,OVCAR-3,4.07 µM (inactive)
same,GI50,OVCAR-4,1.2 µM (inactive)
same,GI50,OVCAR-5,> 100 µM (inactive)
same,GI50,OVCAR-8,0.125 µM (active)
same,GI50,PC-3,> 100 µM (inactive)
same,GI50,RPMI-8226,> 100 µM (inactive)
same,GI50,RXF 393,6.73 µM (inactive)
same,GI50,SF-268,0.933 µM (active)
same,GI50,SF-295,> 100 µM (inactive)
same,GI50,SF-539,13.9 µM (inactive)
same,GI50,SK-MEL-28,> 100 µM (inactive)
same,GI50,SK-MEL-2,> 100 µM (inactive)
same,GI50,SK-MEL-5,68.5 µM (inactive)
same,GI50,SK-OV-3,5.74 µM (inactive)
same,GI50,SN12C,1.26 µM (inactive)
same,GI50,SNB-75,0.424 µM (active)
same,GI50,SR,8.18 µM (inactive)
same,GI50,SW-620,> 21.4 µM (inactive)
same,GI50,T47D,> 68.9 µM (inactive)
same,GI50,TK-10,> 56.1 µM (inactive)
same,GI50,U-251,4.17 µM (inactive)
same,GI50,UACC-257,> 100 µM (inactive)
same,GI50,UACC-62,> 100 µM (inactive)
same,GI50,UO-31,5.69 µM (inactive)
